Values quoted from earlier work as cited in patent US20040059096A1, “Anti-ciguatoxin monoclonal antibody” (priority 2001, published 2004).

Conditions: species and route not given

C[C@@H]1C[C@@H]2O[C@@H]3[C@@H](C)[C@H](O)[C@@H]4OC5(C[C@H](O)CO5)[C@@H](C)[C@H](C)[C@H]4O[C@H]3C[C@H]2O[C@H]2C[C@H]3O[C@@H]4/C=C\C[C@H]5O[C@H]6C=C[C@H]7O[C@H]8[C@H](O)[C@H]9O[C@@H](/C=C/[C@H](O)CO)C=CC[C@@H]9O[C@@H]8C[C@@H]7O[C@@H]6C=C[C@@H]5O[C@@H]4C[C@@H](O)[C@]3(C)O[C@@H]2C1 (stereo partly shown) [CTX]
LD50: 0.35 µg/kg
